According to patent US20240239808A1 (Forma Therapeutics, Inc., priority 2021, published 2024):
pIC50: −log10 of the molar value.

Molecular target: T1, USP1, construct USP1 (1-785, GG670, 671AA)/UAF1 (1-677)-Flag (Homo sapiens, UniProt O94782, G670A/G671A)
T1 construct: USP1, construct USP1 (1-785, GG670, 671AA)/UAF1 (1-677)-Flag; Viva; purchased Viva
Assay: Ubiquitin-Rhodamine 110 assay for USP1 activity
Format: biochemical
Settings: enzyme 25 pM, Ub-Rh110 25 nM, 30 minutes preincubation, 8- or 10-point dilution
Experimental: Example A: Ubitquin-Rhodamine 110 Assay for USP1 Activity
The HTS assay was performed in a final volume of 20 μL in assay buffer containing 20 mM Tris-HCl (pH 8.0, (1M Tris-HCl, pH 8.0 solution; Corning 46-031-CM)), 2 mM CaCl2) (1M Calcium Chloride solution; Sigma #21114) 1 mM GSH (L-Glutathione reduced; Sigma #G4251), 0.01% Prionex ([…] filtered, Sigma #G-0411), and 0.01% Triton X-100. Stock compound solutions were stored at −20° C. as 10 mM in DMSO. Up to 1 month prior to the assay, 2 mM test compounds were pre-dispensed into assay plates (Black, low volume; Corning #3820) and frozen at −20° C. Pre-stamped assay plates were allowed to come to room temperature on the day of the assay. For the screen, 100 nL of 2 mM was pre-dispensed for a final screening concentration of 10 μM (DMSO(fc)=0.5%). The final concentration of the enzyme (USP1, construct USP1 (1-785, GG670, 671AA)/UAF1 (1-677)-Flag; Viva) in the assay was 100 pM. Final substrate (Ub-Rh110; Ubiquitin-Rhodamine 110, R&D Systems #U-555) concentration was 25 nM with [Ub-Rh110]<<Km. 10 μL of 2× enzyme was added to assay plates (pre-stamped with compound) either simultaneously with 2×Ub-Rh110 or preincubated with USP1 40 minutes prior to the addition of 10 μL of 2×Ub-Rh110 to compound plates. Plates were incubated stacked for 45 minutes at room temperature before fluorescence was read on the Envision (Excitation at 485 nm and Emission at 535 nm; Perkin Elmer) or on the PheraSTAR (Excitation at 485 nm and Emission at 535 nm; BMG Labtech).
Nanoliter quantities of either an 8-point or 10-point, 3-fold serial dilution in DMSO were pre-dispensed into assay plates (Perkin Elmer, ProxiPlate-384 F Plus, #6008269) for a final test concentration range of either 25 μM to 11 nM or 25 μM to 1.3 nM, respectively. The final concentration of the enzyme (USP1, construct USP1 (1-785, GG670, 671AA)/UAF1 (1-677)-Flag; Viva) in the assay was 25 pM. Final substrate (Ub-Rh110; Ubiquitin-Rhodamine 110, R&D Systems #U-555) concentration was 25 nM with [Ub-Rh110]<<Km. 5 μL of 2× enzyme was added to assay plates (pre-stamped with compound) preincubated with USP1 for 30 minutes and then 5 μL of 2×Ub-Rh110 was added to assay plates. Plates were incubated stacked for 20 minutes at room temperature before 5 μL of stop solution (final concentration of 10 mM citric acid in assay buffer (Sigma, #251275-500G)). Fluorescence was read on the Envision (Excitation at 485 nm and Emission at 535 nm; Perkin Elmer) or on the PheraSTAR (Excitation at 485 nm and Emission at 535 nm; BMG Labtech).
For both assay formats data were reported as percent inhibition compared with control wells based on the following equation: % inh=[1−((FLU−AveLow)/(AveHigh−AveLow))]×100 where FLU=measured Fluorescence, AveLow=average Fluorescence of no enzyme control (n=16), and AveHigh=average Fluorescence of DMSO control (n=16). IC50 values were determined by curve fitting of the standard 4 parameter logistic fitting algorithm included in the Activity Base software package: IDBS XE Designer Model205. Data is fitted using the Levenburg Marquardt algorithm.

T1 sequence (O94782 whole entry G670A/G671A): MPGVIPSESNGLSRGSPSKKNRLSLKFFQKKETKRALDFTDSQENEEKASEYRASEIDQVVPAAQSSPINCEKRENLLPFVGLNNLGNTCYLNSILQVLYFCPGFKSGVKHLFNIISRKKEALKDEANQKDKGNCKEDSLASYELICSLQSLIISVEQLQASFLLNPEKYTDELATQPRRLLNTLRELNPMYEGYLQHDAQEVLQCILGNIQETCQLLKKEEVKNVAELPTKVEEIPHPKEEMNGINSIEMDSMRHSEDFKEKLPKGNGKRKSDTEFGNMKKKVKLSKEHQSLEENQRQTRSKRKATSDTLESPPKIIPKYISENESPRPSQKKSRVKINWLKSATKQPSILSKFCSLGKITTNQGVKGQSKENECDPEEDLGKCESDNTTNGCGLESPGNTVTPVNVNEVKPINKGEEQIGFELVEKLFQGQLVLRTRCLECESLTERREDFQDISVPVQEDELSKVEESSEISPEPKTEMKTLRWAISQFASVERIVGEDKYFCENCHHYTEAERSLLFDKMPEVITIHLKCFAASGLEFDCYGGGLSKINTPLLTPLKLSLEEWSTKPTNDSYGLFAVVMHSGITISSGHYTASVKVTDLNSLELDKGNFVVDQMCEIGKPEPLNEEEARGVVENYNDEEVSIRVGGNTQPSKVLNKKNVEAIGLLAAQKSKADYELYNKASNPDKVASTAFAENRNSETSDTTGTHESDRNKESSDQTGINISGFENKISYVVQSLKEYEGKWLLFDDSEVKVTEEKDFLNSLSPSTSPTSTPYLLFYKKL
T1 sequence (Q8TAF3 whole entry partner): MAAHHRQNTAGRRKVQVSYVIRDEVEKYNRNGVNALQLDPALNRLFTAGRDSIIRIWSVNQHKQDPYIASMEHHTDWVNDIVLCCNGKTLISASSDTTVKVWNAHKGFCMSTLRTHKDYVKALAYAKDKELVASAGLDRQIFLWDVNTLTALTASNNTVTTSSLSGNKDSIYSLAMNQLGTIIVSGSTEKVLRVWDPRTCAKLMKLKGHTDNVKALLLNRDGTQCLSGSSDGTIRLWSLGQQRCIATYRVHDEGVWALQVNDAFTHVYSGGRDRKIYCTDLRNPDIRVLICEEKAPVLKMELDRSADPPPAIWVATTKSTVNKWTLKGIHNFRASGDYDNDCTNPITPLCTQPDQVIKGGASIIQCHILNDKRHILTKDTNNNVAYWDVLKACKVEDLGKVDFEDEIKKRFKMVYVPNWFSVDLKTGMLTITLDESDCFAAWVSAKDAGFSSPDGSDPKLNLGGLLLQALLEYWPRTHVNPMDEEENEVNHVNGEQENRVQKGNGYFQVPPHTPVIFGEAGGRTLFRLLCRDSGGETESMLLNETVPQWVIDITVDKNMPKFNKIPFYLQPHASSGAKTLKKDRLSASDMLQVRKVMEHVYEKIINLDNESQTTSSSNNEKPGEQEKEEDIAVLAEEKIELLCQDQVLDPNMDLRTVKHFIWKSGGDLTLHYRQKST

SMILES | pIC50
CC(C)c1ccccc1-c1ncc2sc(=O)n(Cc3ccc(-c4nc(C(F)(F)F)cn4C)cc3)c2n1 [Example I-1, 5-(2-isopropylphenyl)-3-(4-(1-methyl-4-(trifluoromethyl)-1H-imidazol-2-yl)benzyl)thiazolo[4,5-d]pyrimidin-2(3H)-one] | ≥ 8.00
CC(C)c1ncccc1-c1ncc2c(n1)N(Cc1ccc(-c3nc(C(F)(F)F)cn3C)cc1)CCO2 [Example I-2, 3-[8-([4-[1-methyl-4-(trifluoromethyl)-1H-imidazol-2-yl]phenyl]methyl)-6H,7H,8H-pyrimido[5,4-b][1,4]oxazin-2-yl]-2-(propan-2-yl)pyridine] | ≥ 8.00
CC(C)c1ncccc1-c1ncc2c(n1)N(Cc1ccc(-c3nc(C(F)(F)F)cn3C)cc1)C(=O)CO2 [Example I-4, 8-([4-[1-methyl-4-(trifluoromethyl)-1H-imidazol-2-yl]phenyl]methyl)-2-[2-(propan-2-yl)pyridin-3-yl]-6H,7H,8H-pyrimido[5,4-b][1,4]oxazin-7-one] | 7.00 to 8.00
CC(C)c1ncccc1-c1ncc2c(n1)N(Cc1ccc(-c3nc(C(F)(F)F)cn3C)cc1)C(=O)C(C)(C)O2 [Example I-5, 6,6-dimethyl-8-([4-[1-methyl-4-(trifluoromethyl)-1H-imidazol-2-yl]phenyl]methyl)-2-[2-(propan-2-yl)pyridin-3-yl]-6H,7H,8H-pyrimido[5,4-b][1,4]oxazin-7-one] | 7.00 to 8.00
CC(C)c1ccccc1-c1ncc2c(n1)N(Cc1ccc(-c3nc(C(F)(F)F)cn3C)cc1)C(=O)N(C)C2 [Example I-6, 3-methyl-1-([4-[1-methyl-4-(trifluoromethyl)-1H-imidazol-2-yl]phenyl]methyl)-7-[2-(propan-2-yl)phenyl]-1H,2H,3H,4H-[1,3]diazino[4,5-d]pyrimidin-2-one] | 7.00 to 8.00
CC(C)c1ccccc1-c1ncc2c(n1)N(Cc1ccc(-c3nc(C(F)(F)F)cn3C)cc1)C(=O)OC2 [Example I-7, 1-([4-[1-methyl-4-(trifluoromethyl)-1H-imidazol-2-yl]phenyl]methyl)-7-[2-(propan-2-yl)phenyl]-1H,2H, 4H-pyrimido[4,5-d][1,3]oxazin-2-one] | ≥ 8.00
CC(C)c1ncccc1-c1ncc2c(n1)N(Cc1ccc(-c3nc(C(F)(F)F)cn3C)cc1)C(=O)OC2 [Example I-8, 1-([4-[1-methyl-4-(trifluoromethyl)-1H-imidazol-2-yl]phenyl]methyl)-7-[2-(propan-2-yl)pyridin-3-yl]-1H,2H, 4H-pyrimido[4,5-d][1,3]oxazin-2-one] | 7.00 to 8.00
CC(C)c1ncccc1-c1ncc2ccn(Cc3ccc(-c4nc(C(F)(F)F)cn4C)cc3)c2n1 [Example I-9, 3-[7-([4-[1-methyl-4-(trifluoromethyl)-1H-imidazol-2-yl]phenyl]methyl)-7H-pyrrolo[2,3-d]pyrimidin-2-yl]-2-(propan-2-yl)pyridine] | ≥ 8.00
CC(C)c1ncccc1-c1ncc2cnn(Cc3ccc(-c4nc(C(F)(F)F)cn4C)cc3)c2n1 [Example I-10, 3-[1-([4-[1-methyl-4-(trifluoromethyl)-1H-imidazol-2-yl]phenyl]methyl)-1H-pyrazolo[3,4-d]pyrimidin-6-yl]-2-(propan-2-yl)pyridine] | 7.00 to 8.00
CC(C)c1ncccc1-c1ncc2c(n1)N(Cc1ccc(-c3nc(C(F)(F)F)cn3C)cc1)C(=O)C21CC1 [Example I-11, 3′-([4-[1-methyl-4-(trifluoromethyl)-1H-imidazol-2-yl]phenyl]methyl)-5′-[2-(propan-2-yl)pyridin-3-yl]-2′,3′-dihydrospiro[cyclopropane-1,1′-pyrrolo[2,3-d]pyrimidine]-2′-one] | 7.00 to 8.00
CC(C)c1ccccc1-c1ncc2oc(=O)n(Cc3ccc(-c4nc(C(F)(F)F)cn4C)cc3)c2n1 [Example I-12, 5-(2-isopropylphenyl)-3-(4-(1-methyl-4-(trifluoromethyl)-1H-imidazol-2-yl)benzyl)oxazolo[4,5-d]pyrimidin-2(3H)-one] | ≥ 8.00
CC(C)c1ncccc1-c1ncc2oc(=O)n(Cc3ccc(-c4nc(C(F)(F)F)cn4C)cc3)c2n1 [Example I-13] | 6.00 to 7.00
CC(C)c1ccccc1-c1ncc2nc(C3CNC3)n(Cc3ccc(-n4cccn4)cc3)c2n1 [Example I-14, 8-(azetidin-3-yl)-2-[2-(propan-2-yl)phenyl]-9-[[4-(1H-pyrazol-1-yl)phenyl]methyl]-9H-purine] | 6.00 to 7.00
CC(C)c1ccccc1-c1ncc2nc(C3COC3)n(Cc3ccc(-n4cccn4)cc3)c2n1 [Example I-15, 8-(oxetan-3-yl)-2-[2-(propan-2-yl)phenyl]-9-[[4-(1H-pyrazol-1-yl)phenyl]methyl]-9H-purine] | 6.00 to 7.00
CC(C)c1ncccc1-c1ncc2c(n1)N(Cc1ccc(-c3nc(C(F)(F)F)cn3C)cc1)C(=O)C2 [Example I-16, 7-([4-[1-methyl-4-(trifluoromethyl)-1H-imidazol-2-yl]phenyl]methyl)-2-[2-(propan-2-yl)pyridin-3-yl]-5H,6H,7H-pyrrolo[2,3-d]pyrimidin-6-one] | 7.00 to 8.00
COc1nc2cnc(-c3cccnc3C(C)C)nc2n1Cc1ccc(-c2nc(C(F)(F)F)cn2C)cc1 [Example I-17, 8-methoxy-9-([4-[1-methyl-4-(trifluoromethyl)-1H-imidazol-2-yl]phenyl]methyl)-2-[2-(propan-2-yl)pyridin-3-yl]-9H-purine] | 6.00 to 7.00
CC(C)c1ccccc1-c1ncc2c(n1)N(Cc1ccc(-c3nc(C(F)(F)F)cn3C)cc1)C(=O)C2 [Example I-18, 7-([4-[1-methyl-4-(trifluoromethyl)-1H-imidazol-2-yl]phenyl]methyl)-2-[2-(propan-2-yl)phenyl]-5H,6H,7H-pyrrolo[2,3-d]pyrimidin-6-one] | ≥ 8.00
CC(C)c1ncccc1-c1ncc2c(n1)N(Cc1ccc(-c3nc(C(F)(F)F)cn3C3COC3)cc1)C(=O)C2 [Example I-19, 7-([4-[1-(oxetan-3-yl)-4-(trifluoromethyl)-1H-imidazol-2-yl]phenyl]methyl)-2-[2-(propan-2-yl)pyridin-3-yl]-5H,6H,7H-pyrrolo[2,3-d]pyrimidin-6-one] | 6.00 to 7.00
CC(C)c1ncccc1-c1ncc2c(n1)N(Cc1ccc(-c3nc(C(F)(F)F)cn3C)cc1)C(=O)CC2 [Example I-20, 8-([4-[1-methyl-4-(trifluoromethyl)-1H-imidazol-2-yl]phenyl]methyl)-2-[2-(propan-2-yl)pyridin-3-yl]-5H,6H,7H,8H-pyrido[2,3-d]pyrimidin-7-one] | 7.00 to 8.00
COc1ncnc(C2CC2)c1-c1ncc2sc(=O)n(Cc3ccc(-n4nc(C(F)(F)F)cc4C)cc3)c2n1 [Example I-21, 5-(4-cyclopropyl-6-methoxypyrimidin-5-yl)-3-(4-(5-methyl-3-(trifluoromethyl)-1H-pyrazol-1-yl)benzyl)thiazolo[4,5-d]pyrimidin-2(3H)-one] | ≥ 8.00
COc1ncnc(C2CC2)c1-c1ncc2sc(=O)n(Cc3ccc(-c4nc(C(F)(F)F)cn4C)cc3)c2n1 [Example I-22, 5-(4-cyclopropyl-6-methoxypyrimidin-5-yl)-3-(4-(1-methyl-4-(trifluoromethyl)-1H-imidazol-2-yl)benzyl)thiazolo[4,5-d]pyrimidin-2(3H)-one] | ≥ 8.00
